One may read the IC50 as the concentration that inhibits the measured activity by half. Low readings indicate greater potency, high ones weaker potency.

A value given as a limit tells only on which side of the number the result lay.

This is an account of results in patent publication US12521393B2, “Cytotoxicity targeting chimeras for CCR2-expressing cells” (GLAXOSMITHKLINE INTELLECTUAL PROPERTY DEVELOPMENT LIMITED, priority 2021, dated 2026).

Assay [1] deals with CCR2 expressing cells (CD11b+Ly6c+Hi) in peripheral blood. Put plainly: In vivo depletion assay, flow cytometry of peripheral blood (Example 201). Details: species or system human CCR2 knock-in mice (C57 background). To be noted: hCCR2 knock-in mice, IV 0.1 mpk compound + 10 mpk anti-cotinine antibody (SEQ ID NO: 13/14), peripheral blood at 48 hr. In outline:
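Mice dosed with compound formulated in saline/DMSO/PBS, with anti-cotinine antibody (rabbit variable region, mouse IgG2a Fc) where required, pre-incubated 30 min at room temperature. Terminal peripheral blood RBC-lysed, Fc-blocked, stained for CD45, CD3, CD11b, Ly6C, human CCR2 and 7AAD; percent depletion of CD11b+Ly6c+Hi cells determined by flow cytometry.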
On the technique in general: A flow cytometer gives signals particle by particle.

In assay [2] the target is human alpha1 nicotinic acetylcholine (nACh) receptor (Homo sapiens, UniProt P02708). Kind of assay: Nicotinic acetylcholine receptor antagonism assay, IONFlux automated patch clamp (Example 203). The settings on record: for IC50: antagonism of ACh-stimulated human alpha1 nAChR current, patch clamp; for Emax at 100 µM: maximum percentage antagonism at maximum concentration tested 100 μM. Type of assay: cell-based. In outline: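 Cells expressing human α1 nAChR were incubated with a compound dose response (top 10 μM or 100 μM), then stimulated with ACh (10 mM), and peak current was read by automated patch clamp. % inhibition was taken against ACh-alone control, corrected for vehicle and run-down, and fit non-linearly for IC50; runs were averaged.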
On the technique in general: In patch-clamp work, channel activity is measured electrically.

Sequence of human alpha1 nicotinic acetylcholine (nACh) receptor (P02708 21-457): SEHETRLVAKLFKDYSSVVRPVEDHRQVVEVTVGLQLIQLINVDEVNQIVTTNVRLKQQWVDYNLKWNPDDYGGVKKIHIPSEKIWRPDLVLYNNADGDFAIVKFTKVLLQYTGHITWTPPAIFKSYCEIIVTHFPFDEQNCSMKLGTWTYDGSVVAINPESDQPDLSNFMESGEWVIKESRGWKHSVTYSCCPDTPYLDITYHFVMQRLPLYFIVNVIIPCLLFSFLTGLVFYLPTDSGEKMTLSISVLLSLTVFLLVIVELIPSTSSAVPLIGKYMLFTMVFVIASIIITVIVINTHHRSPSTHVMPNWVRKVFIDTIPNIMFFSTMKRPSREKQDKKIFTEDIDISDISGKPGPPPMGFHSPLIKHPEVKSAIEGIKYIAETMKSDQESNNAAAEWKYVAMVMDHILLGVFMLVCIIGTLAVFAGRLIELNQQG
Sequence of human alpha1 nicotinic acetylcholine (nACh) receptor (P11230 24-501 partner): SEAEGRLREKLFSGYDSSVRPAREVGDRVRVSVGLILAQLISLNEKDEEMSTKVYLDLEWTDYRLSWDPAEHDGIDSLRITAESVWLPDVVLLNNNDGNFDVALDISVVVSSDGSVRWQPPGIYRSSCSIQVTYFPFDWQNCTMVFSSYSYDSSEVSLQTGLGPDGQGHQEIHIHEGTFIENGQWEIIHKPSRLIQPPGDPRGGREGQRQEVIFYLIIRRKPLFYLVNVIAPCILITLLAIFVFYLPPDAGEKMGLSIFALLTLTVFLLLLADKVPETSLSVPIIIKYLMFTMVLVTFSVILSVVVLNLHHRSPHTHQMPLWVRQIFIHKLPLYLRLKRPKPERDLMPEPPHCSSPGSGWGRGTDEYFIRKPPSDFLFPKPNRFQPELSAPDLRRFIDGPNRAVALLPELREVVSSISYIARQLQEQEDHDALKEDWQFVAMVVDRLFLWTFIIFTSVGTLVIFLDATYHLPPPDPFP
Sequence of human alpha1 nicotinic acetylcholine (nACh) receptor (Q07001 22-517 partner): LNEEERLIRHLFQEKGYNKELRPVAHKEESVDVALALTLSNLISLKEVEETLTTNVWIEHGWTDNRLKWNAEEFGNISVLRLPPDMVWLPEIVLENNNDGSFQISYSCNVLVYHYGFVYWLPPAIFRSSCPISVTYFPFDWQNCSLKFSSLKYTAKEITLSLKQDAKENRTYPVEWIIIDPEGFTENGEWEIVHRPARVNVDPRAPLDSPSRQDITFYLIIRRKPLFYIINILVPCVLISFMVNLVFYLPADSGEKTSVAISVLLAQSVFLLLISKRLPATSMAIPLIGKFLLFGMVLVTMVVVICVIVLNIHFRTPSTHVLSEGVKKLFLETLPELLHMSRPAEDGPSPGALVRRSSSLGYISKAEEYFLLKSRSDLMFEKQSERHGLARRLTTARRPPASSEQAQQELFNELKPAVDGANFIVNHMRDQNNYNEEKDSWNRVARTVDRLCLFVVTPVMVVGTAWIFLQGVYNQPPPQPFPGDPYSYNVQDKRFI

In the case of `CC(C)N(C)[C@@H]1CC[C@H](N2CC[C@H](Nc3ncnc4ccc(C(F)(F)F)cc34)C2=O)[C@H](NC(=O)[C@H]2CC[C@@H](NC(=O)CCCO[C@H]3CC[C@H](NC(=O)CCNC(=O)[C@@H]4CC(=O)N(C)[C@H]4c4cccnc4)CC3)CC2)C1` [Example 52, (2S,3S)-N-(3-(((1R,4S)-4-(4-(((1S,4S)-4-(((1R,2S,5R)-5-(Isopropyl(methyl)amino)-2-((S)-2-oxo-3-((6-(trifluoromethyl)quinazolin-4-yl)amino)pyrrolidin-1-yl)cyclohexyl)carbamoyl)cyclohexyl)amino)-4-oxobutoxy)cyclohexyl)amino)-3-oxopropyl)-1-methyl-5-oxo-2-(pyridin-3-yl)pyrrolidine-3-carboxamide], the “% Depletion of CCR2 expressing cells” value in assay [1] was 79.18%. This compound returned an IC50 in assay [2] of 33.3 µM. The Emax at 33.33 µM in assay [2] (maximum percentage antagonism at maximum concentration tested 33.33 μM, read-out: Maximum Response) was 8.3%.

With `CC(C)N(C)[C@@H]1CC[C@H](N2CC[C@H](Nc3ncnc4ccc(C(F)(F)F)cc34)C2=O)[C@H](NC(=O)[C@H]2CC[C@H](NC(=O)CCCOC[C@H]3CC[C@@H](COCCNC(=O)[C@H]4CC(=O)N(C)[C@@H]4c4cccnc4)CC3)CC2)C1` [Example 57, (2S,3S)-N-(2-(((1S,4R)-4-((4-(((1R,4R)-4-(((1R,2S,5R)-5-(Isopropyl(methyl)amino)-2-((S)-2-oxo-3-((6-(trifluoromethyl)quinazolin-4-yl)amino)pyrrolidin-1-yl)cyclohexyl)carbamoyl)cyclohexyl)amino)-4-oxobutoxy)methyl)cyclohexyl)methoxy)ethyl)-1-methyl-5-oxo-2-(pyridin-3-yl)pyrrolidine-3-carboxamide], the “% Depletion of CCR2 expressing cells” value in assay [1] was determined as 77%. In assay [2], this compound returned a concentration for half-maximal inhibition (IC50) of at least 30 µM. Further, the Emax at 30 µM in assay [2] (maximum percentage antagonism at maximum concentration tested 30 μM, read-out: Maximum Response) was 47.6%.

Consider `CC(C)N(C)[C@@H]1CC[C@H](N2CC[C@H](Nc3ncnc4ccc(C(F)(F)F)cc34)C2=O)[C@H](NC(=O)CCOCCC(=O)N[C@H]2C[C@@H](C(=O)NCCOCCNC(=O)[C@H]3CC(=O)N(C)[C@@H]3c3cccnc3)C2)C1` [Example 186, (2S,3S)-N-(2-(2-((1S,3R)-3-(3-(3-(((1R,2S,5R)-5-(Isopropyl(methyl)amino)-2-((S)-2-oxo-3-((6-(trifluoromethyl)quinazolin-4-yl)amino)pyrrolidin-1-yl)cyclohexyl)amino)-3-oxopropoxy)propanamido)cyclobutane-1-carboxamido)ethoxy)ethyl)-1-methyl-5-oxo-2-(pyridin-3-yl)pyrrolidine-3-carboxamide], for which the “% Depletion of CCR2 expressing cells” value in assay [1] was found to be 96%. Moreover, it took 31.8 µM to reach half-maximal inhibition in assay [2] (IC50). Besides, the Emax at 100 µM in assay [2] (read-out: Maximum Response) worked out at 55.2%.

Turning to `CCN1C(=O)C[C@H](C(=O)NCCOCCOCCOCCC(=O)N[C@H]2CC[C@@H](C(=O)N[C@@H]3C[C@H](NC(C)(C)C)CC[C@@H]3N3CC[C@H](Nc4ncnc5ccc(C(F)(F)F)cc45)C3=O)CC2)[C@H]1c1cccnc1` [Example 35, (2S,3S)-N-(2-(2-(2-(3-(((1S,4s)-4-(((1R,2S,5R)-5-(tert-butylamino)-2-((S)-2-oxo-3-((6-(trifluoromethyl)quinazolin-4-yl)amino)pyrrolidin-1-yl)cyclohexyl)carbamoyl)cyclohexyl)amino)-3-oxopropoxy)ethoxy)ethoxy)ethyl)-1-ethyl-5-oxo-2-(pyridin-3-yl)pyrrolidine-3-carboxamide], in assay [1], the “% Depletion of CCR2 expressing cells” value worked out at 88.81%. The compound also returned an IC50 in assay [2] of 89.2 µM. In addition, the Emax at 100 µM in assay [2] (read-out: Maximum Response) came to 52.3%.

`CC(C)N(C)[C@@H]1CC[C@H](N2CC[C@H](Nc3ncnc4ccc(C(F)(F)F)cc34)C2=O)[C@H](NC(=O)CCOCCC(=O)N[C@H]2C[C@H](C(=O)NCCOCCNC(=O)[C@H]3CC(=O)N(C)[C@@H]3c3cccnc3)C2)C1` [Example 187]: in assay [1], the “% Depletion of CCR2 expressing cells” value was determined as 92%. In assay [2], this compound showed an IC50 of 71.1 µM. Moreover, the Emax at 100 µM in assay [2] (read-out: Maximum Response) stood at 63.7%.

Regarding `CC(C)N(C)[C@@H]1CC[C@H](N2CC[C@H](Nc3ncnc4ccc(C(F)(F)F)cc34)C2=O)[C@H](NC(=O)CCOCCNC(=O)[C@H]2CC[C@@H](NC(=O)COCCNC(=O)[C@H]3CC(=O)N(C)[C@@H]3c3cccnc3)CC2)C1` [Example 107, (2S,3S)-N-(2-(2-(((1S,4R)-4-((2-(3-(((1R,2S,5R)-5-(Isopropyl(methyl)amino)-2-((S)-2-oxo-3-((6-(trifluoromethyl)quinazolin-4-yl)amino)pyrrolidin-1-yl)cyclohexyl)amino)-3-oxopropoxy)ethyl)carbamoyl)cyclohexyl)amino)-2-oxoethoxy)ethyl)-1-methyl-5-oxo-2-(pyridin-3-yl)pyrrolidine-3-carboxamide], the “% Depletion of CCR2 expressing cells” value in assay [1] was 96%. For the same compound, the IC50 in assay [2] was at least 10 µM. In assay [2] (maximum percentage antagonism at maximum concentration tested 10 μM, read-out: Maximum Response), the Emax at 10 µM came to 12.2%.

Take `CC(C)N(C)[C@@H]1CC[C@H](N2CC[C@H](Nc3ncnc4ccc(C(F)(F)F)cc34)C2=O)[C@H](NC(=O)[C@H]2CC[C@@H](NC(=O)CCOCCOCCNC(=O)CNC(=O)[C@H]3CC(=O)N(C)[C@@H]3c3cccnc3)CC2)C1` [Example 63, (2S,3S)-N-(2-((2-(2-(3-(((1S,4s)-4-(((1R,2S,5R)-5-(Isopropyl(methyl)amino)-2-((S)-2-oxo-3-((6-(trifluoromethyl)quinazolin-4-yl)amino)pyrrolidin-1-yl)cyclohexyl)carbamoyl)cyclohexyl)amino)-3-oxopropoxy)ethoxy)ethyl)amino)-2-oxoethyl)-1-methyl-5-oxo-2-(pyridin-3-yl)pyrrolidine-3-carboxamide]: the “% Depletion of CCR2 expressing cells” value in assay [1] is 82%. Further, the IC50 in assay [2] stood at 38.5 µM. In addition, the Emax at 100 µM in assay [2] (read-out: Maximum Response) was determined as 76.6%.

`CC(C)N(C)[C@@H]1CC[C@H](N2CC[C@H](Nc3ncnc4ccc(C(F)(F)F)cc34)C2=O)[C@H](NC(=O)[C@H]2CC[C@@H](NC(=O)CCCC(=O)NCCCOCCCNC(=O)[C@H]3CC(=O)N(C)[C@@H]3c3cccnc3)CC2)C1` [Example 18, N^1-((1S,4s)-4-(((1R,2S,5R)-5-(Isopropyl(methyl)amino)-2-((S)-2-oxo-3-((6-(trifluoromethyl)quinazolin-4-yl)amino)pyrrolidin-1-yl)cyclohexyl)carbamoyl)cyclohexyl)-N^5-(3-(3-((2S,3S)-1-methyl-5-oxo-2-(pyridin-3-yl)pyrrolidine-3-carboxamido)propoxy)propyl)glutaramide]: the “% Depletion of CCR2 expressing cells” value in assay [1] is 88%. Also, in assay [2], the 50% inhibitory concentration (IC50) was at least 100 µM. Also, the Emax at 100 µM in assay [2] (read-out: Maximum Response) stood at 44.9%.

On to `CC(C)N(C)[C@@H]1CC[C@H](N2CC[C@H](Nc3ncnc4ccc(C(F)(F)F)cc34)C2=O)[C@H](NC(=O)[C@H]2CC[C@@H](NC(=O)CCOCCOCCOCCNC(=O)[C@H]3CC(=O)N(C)[C@@H]3c3cccnc3)CC2)C1` [Example 28, (2S,3S)-N-(2-(2-(2-(3-(((1S,4s)-4-(((1R,2S,5R)-5-(Isopropyl(methyl)amino)-2-((S)-2-oxo-3-((6-(trifluoromethyl)quinazolin-4-yl)amino)pyrrolidin-1-yl)cyclohexyl)carbamoyl)cyclohexyl)amino)-3-oxopropoxy)ethoxy)ethoxy)ethyl)-1-methyl-5-oxo-2-(pyridin-3-yl)pyrrolidine-3-carboxamide], for which the “% Depletion of CCR2 expressing cells” value in assay [1] turned out to be 87.1%. Also, 40.9 µM corresponded to half-maximal inhibition in assay [2] (IC50). In assay [2] (read-out: Maximum Response), the Emax at 100 µM amounted to 69.9%.

As for `CC(C)N(C)[C@@H]1CC[C@H](N2CC[C@H](Nc3ncnc4ccc(C(F)(F)F)cc34)C2=O)[C@H](NC(=O)CCOCCNC(=O)COCCNC(=O)COCCNC(=O)[C@H]2CC(=O)N(C)[C@@H]2c2cccnc2)C1` [Example 102, (2S,3S)-N-(18-(((1R,2S,5R)-5-(Isopropyl(methyl)amino)-2-((S)-2-oxo-3-((6-(trifluoromethyl)quinazolin-4-yl)amino)pyrrolidin-1-yl)cyclohexyl)amino)-5,11,18-trioxo-3,9,15-trioxa-6,12-diazaoctadecyl)-1-methyl-5-oxo-2-(pyridin-3-yl)pyrrolidine-3-carboxamide], in assay [1], the “% Depletion of CCR2 expressing cells” value is on record as 91%. This compound also gave an IC50 in assay [2] of 66.1 µM. Besides, the Emax at 100 µM in assay [2] (read-out: Maximum Response) is 61.3%.

`CC(C)N(C)[C@@H]1CC[C@H](N2CC[C@H](Nc3ncnc4ccc(C(F)(F)F)cc34)C2=O)[C@H](NC(=O)[C@H]2CC[C@H](C(=O)NCCCOCCCCOCCCNC(=O)[C@H]3CC(=O)N(C)[C@@H]3c3cccnc3)CC2)C1` [Example 194, (1r,4R)-N^1-((1R,2S,5R)-5-(Isopropyl(methyl)amino)-2-((S)-2-oxo-3-((6-(trifluoromethyl)quinazolin-4-yl)amino)pyrrolidin-1-yl)cyclohexyl)-N^4-(3-(4-(3-((2S,3S)-1-methyl-5-oxo-2-(pyridin-3-yl)pyrrolidine-3-carboxamido)propoxy)butoxy)propyl)cyclohexane-1,4-dicarboxamide]: in assay [1], the “% Depletion of CCR2 expressing cells” value is 96%. In assay [2], the IC50 is at least 100 µM. Besides, the Emax at 100 µM in assay [2] (read-out: Maximum Response) is 44.9%.

Consider `CC(C)N(C)[C@@H]1CC[C@H](N2CC[C@H](Nc3ncnc4ccc(C(F)(F)F)cc34)C2=O)[C@H](NC(=O)[C@H]2CC[C@@H](NC(=O)CCOCCOCCNC(=O)CCNC(=O)[C@H]3CC(=O)N(C)[C@@H]3c3cccnc3)CC2)C1` [Example 16, (2S,3S)-N-(3-((2-(2-(3-(((1S,4s)-4-(((1R,2S,5R)-5-(Isopropyl(methyl)amino)-2-((S)-2-oxo-3-((6-(trifluoromethyl)quinazolin-4-yl)amino)pyrrolidin-1-yl)cyclohexyl)carbamoyl)cyclohexyl)amino)-3-oxopropoxy)ethoxy)ethyl)amino)-3-oxopropyl)-1-methyl-5-oxo-2-(pyridin-3-yl)pyrrolidine-3-carboxamide], for which the “% Depletion of CCR2 expressing cells” value in assay [1] came to 74%. Also, the IC50 in assay [2] is at least 100 µM. Besides, the Emax at 100 µM in assay [2] (read-out: Maximum Response) was 47.8%.
